Assay results from ChEMBL document CHEMBL6153137, “Design, Synthesis, and Biological Evaluation of Novel Orally Available Covalent CDK12/13 Dual Inhibitors for the Treatment of Tumors” (J Med Chem, 2025).
Activity calls are given as the source filed them. No cut-off for these calls is given here.

How the values were obtained:
[1] = Toxicity against male Sprague-Dawley rat assessed as body weight loss at 40 mg/kg, po administered once daily via gavage for 28 days and measured twice a week; type: organism-based; conditions: in vivo, 672 h, time 28 day
[2] = Toxicity against female Sprague-Dawley rat assessed as increase in neutrophils content at 7.5 to 30 mg/kg, po administered once daily via gavage for 28 days and measured on day 29; type: organism-based; conditions: in vivo, 696 h, dose 7.5-30 mg/kg, time 29 day
HEP Sf9 = experiment: Inhibition of human recombinant N-terminal GST-tagged CDK6/C-terminal 6X His-tagged Cyclin D3 S259A mutant expressed in HEP Sf9 cells using ATP as substrate at 2 uM measured after 60 mins by ADP-Glo reagent based luminescence analysis
[3] = target: Cyclin-dependent kinase 13/Cyclin-K (Homo sapiens, UniProt Q14004); experiment: Inhibition of human recombinant N-terminal GST-tagged CDK13/N-terminal FLAG and C-terminal His-tagged Cyclin K expressed in HEP Sf9 cells using ATP as substrate measured after 60 mins by ADP-Glo reagent based luminescence assay
Cyclin-dependent kinase 13/Cyclin-K, sequence (Q14004 whole entry): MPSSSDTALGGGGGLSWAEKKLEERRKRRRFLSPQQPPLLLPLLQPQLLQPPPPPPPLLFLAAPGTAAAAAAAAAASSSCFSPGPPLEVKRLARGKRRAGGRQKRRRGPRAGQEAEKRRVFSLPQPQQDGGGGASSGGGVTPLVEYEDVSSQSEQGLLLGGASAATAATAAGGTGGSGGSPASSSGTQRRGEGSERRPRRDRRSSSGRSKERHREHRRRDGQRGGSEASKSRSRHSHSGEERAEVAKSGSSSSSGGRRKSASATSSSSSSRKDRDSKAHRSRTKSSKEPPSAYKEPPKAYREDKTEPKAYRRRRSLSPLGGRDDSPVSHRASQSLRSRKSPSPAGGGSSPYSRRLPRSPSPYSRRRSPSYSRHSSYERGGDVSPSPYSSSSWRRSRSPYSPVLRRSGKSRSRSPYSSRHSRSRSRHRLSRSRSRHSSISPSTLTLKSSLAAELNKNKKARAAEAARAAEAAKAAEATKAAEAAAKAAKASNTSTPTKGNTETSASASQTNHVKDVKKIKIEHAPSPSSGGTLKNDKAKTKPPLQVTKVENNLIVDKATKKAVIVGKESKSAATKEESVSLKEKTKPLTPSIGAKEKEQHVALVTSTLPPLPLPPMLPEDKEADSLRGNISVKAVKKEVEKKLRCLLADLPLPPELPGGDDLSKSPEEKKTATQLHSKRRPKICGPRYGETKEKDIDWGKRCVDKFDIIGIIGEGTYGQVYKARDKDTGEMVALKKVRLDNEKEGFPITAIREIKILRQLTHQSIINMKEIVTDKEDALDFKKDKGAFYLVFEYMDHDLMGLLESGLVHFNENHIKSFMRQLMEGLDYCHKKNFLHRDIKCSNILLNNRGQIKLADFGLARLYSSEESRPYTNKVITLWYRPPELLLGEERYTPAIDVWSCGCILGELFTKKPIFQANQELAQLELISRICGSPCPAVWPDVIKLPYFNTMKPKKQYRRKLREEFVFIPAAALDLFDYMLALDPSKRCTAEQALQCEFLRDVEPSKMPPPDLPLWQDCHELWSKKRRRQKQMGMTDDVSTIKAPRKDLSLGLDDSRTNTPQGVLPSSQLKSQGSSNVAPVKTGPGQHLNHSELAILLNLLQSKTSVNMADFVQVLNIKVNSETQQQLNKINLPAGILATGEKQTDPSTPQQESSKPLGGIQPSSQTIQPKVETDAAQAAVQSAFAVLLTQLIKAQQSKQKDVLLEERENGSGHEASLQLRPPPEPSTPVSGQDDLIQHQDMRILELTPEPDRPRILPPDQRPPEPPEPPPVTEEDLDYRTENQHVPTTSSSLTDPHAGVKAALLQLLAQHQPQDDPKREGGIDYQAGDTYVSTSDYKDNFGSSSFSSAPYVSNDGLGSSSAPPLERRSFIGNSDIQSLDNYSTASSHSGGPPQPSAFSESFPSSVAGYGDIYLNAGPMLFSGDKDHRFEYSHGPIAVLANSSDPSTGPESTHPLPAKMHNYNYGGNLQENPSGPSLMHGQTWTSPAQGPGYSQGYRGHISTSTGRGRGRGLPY
Cyclin-dependent kinase 13/Cyclin-K, sequence (O75909 whole entry, further chain): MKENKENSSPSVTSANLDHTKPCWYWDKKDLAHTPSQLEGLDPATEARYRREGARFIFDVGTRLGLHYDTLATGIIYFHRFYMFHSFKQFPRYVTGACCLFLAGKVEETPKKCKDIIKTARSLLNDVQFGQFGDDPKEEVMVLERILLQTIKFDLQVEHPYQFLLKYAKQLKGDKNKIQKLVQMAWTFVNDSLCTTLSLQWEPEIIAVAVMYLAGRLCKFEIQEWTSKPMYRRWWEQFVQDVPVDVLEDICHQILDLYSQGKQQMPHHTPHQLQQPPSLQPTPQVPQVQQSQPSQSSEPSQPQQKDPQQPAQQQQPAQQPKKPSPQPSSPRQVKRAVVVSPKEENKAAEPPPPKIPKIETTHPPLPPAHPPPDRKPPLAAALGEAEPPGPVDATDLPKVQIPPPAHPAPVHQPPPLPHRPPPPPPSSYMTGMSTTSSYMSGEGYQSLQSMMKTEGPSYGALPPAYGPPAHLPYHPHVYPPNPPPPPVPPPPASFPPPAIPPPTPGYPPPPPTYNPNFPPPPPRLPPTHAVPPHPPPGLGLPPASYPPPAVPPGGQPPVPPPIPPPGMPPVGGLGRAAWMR

[4] = GSH reactivity assessed as half life to adduct formation at 10 uM by LC-MS/MS analysis; type: physicochemical
[5] = Cmax in male Sprague-Dawley rat at 20 mg/kg, po administered once daily via gavage for 28 days; type: ADME, organism-based; conditions: in vivo, time 28 day
[6] = Cmax in male Sprague-Dawley rat at 10 mg/kg, po administered via gavage and measured on day 1; type: ADME, organism-based; conditions: in vivo, time 1 day
[7] = Protein binding in human plasma assessed as free fraction at 400 uM incubated for 4 hrs by equilibrium dialysis method based LC-MS/MS analysis; type: ADME, cell-free
[8] = Cmax in Balb/c mouse xenografted with human SUM149PT cells at 30 mg/kg, po administered once daily via gavage; type: ADME, organism-based; conditions: in vivo
[9] = AUC (0 to infinity) in Sprague-Dawley rat at 1 mg/kg, iv by LC-MS/MS analysis; type: ADME, organism-based; conditions: in vivo
SUM149PT = experiment: Induction of DNA damage in human SUM149PT cells assessed as increase in gammaH2AX phosphorylation at 250 to 1000 nM incubated for 1 to 24 hrs by western blot analysis; type: functional, cell-based; conditions: dose 250-1000 nM, time lower 1.0 hrs, time upper […]
[10] = Half life in male Sprague-Dawley rat at 10 mg/kg, po administered via gavage and measured on day 1; type: ADME, organism-based; conditions: in vivo, time 1 day
[11] = Toxicity against Balb/c mouse xenografted with human SUM149PT cells assessed as body weight at 30 to 60 mg/kg, po administered once daily via gavage and measured every 3 days for 3 weeks; type: organism-based; conditions: in vivo, 504 h, dose 30-60 mg/kg
[12] = Toxicity against male Sprague-Dawley rat assessed as soft feces at 40 mg/kg, po administered once daily via gavage for 28 days; type: organism-based; conditions: in vivo, 672 h, time 28 day
[13] = target: CDK6/cyclin D1 (Homo sapiens) (UniProt P24385+Q00534); experiment: Inhibition of human recombinant N-terminal GST-tagged CDK6/N-terminal GST-tagged and C-terminal 6X His-tagged Cyclin D1 expressed in HEP Sf9 cells using ATP as substrate at 2 uM measured after 60 mins by ADP-Glo reagent based luminescence analysis
[14] = target: Cyclin-dependent kinase 12/13 (Homo sapiens) (UniProt Q14004+Q9NYV4); experiment: Inhibition of CDK12/13 in human SUM149PT cells assessed as reduction in BRCA1 gene expression at 500 nM incubated for 8 to 24 hrs by qPCR analysis; type: cell-based; conditions: time lower 8.0 hrs, time upper […]
[15] = Volume of distribution at steady state in Sprague-Dawley rat at 1 mg/kg, iv measured for 24 hrs by LC-MS/MS analysis; type: ADME, organism-based; conditions: in vivo, read-out: Vdss
[16] = Toxicity against male Sprague-Dawley rat assessed as perianal contamination at 40 mg/kg, po administered once daily via gavage for 28 days; type: organism-based; conditions: in vivo, 672 h, time 28 day
[17] = Half-life of the compound in human Plasma; type: ADME, cell-free
[18] = Half life in Sprague-Dawley rat at 1 mg/kg, iv measured for 24 hrs by LC-MS/MS analysis; type: ADME, organism-based; conditions: in vivo
DLD-1 = experiment: Antiproliferative activity against human DLD-1 cells assessed as reduction in cell viability incubated for 7 days by CellTiter-Glo reagent based luminescence analysis; type: functional; conditions: DLD-1, 168 h
[19] = target: Cyclin-dependent kinase 7 (Homo sapiens) (UniProt P50613); experiment: Inhibition of CDK7 in human SUM149PT cells assessed as reduction in level of phosphorylation of Ser5 on RNA Pol II CTD at 500 nM incubated for 12 hrs followed by drug wash-out and measured after 72 hrs by western blot analysis; type: cell-based
Cyclin-dependent kinase 7 (Homo sapiens), sequence (P50613 whole entry): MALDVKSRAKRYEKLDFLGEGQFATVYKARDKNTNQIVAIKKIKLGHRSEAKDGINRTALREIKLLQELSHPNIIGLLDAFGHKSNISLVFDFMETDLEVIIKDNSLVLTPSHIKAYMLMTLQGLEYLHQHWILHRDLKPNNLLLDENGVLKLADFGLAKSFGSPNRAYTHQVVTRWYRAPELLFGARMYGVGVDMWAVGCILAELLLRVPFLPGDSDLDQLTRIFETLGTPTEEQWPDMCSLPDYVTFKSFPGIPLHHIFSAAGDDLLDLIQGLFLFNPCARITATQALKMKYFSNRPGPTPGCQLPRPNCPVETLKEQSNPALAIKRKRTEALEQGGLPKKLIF

[20] = target: CDK9/cyclin T1 (Homo sapiens) (UniProt O60563+P50750); experiment: Inhibition of human recombinant N-terminal GST-tagged CDK9/N-terminal GST-tagged and C-terminal 8X His-tagged Cyclin T1 expressed in HEP Sf9 cells using ATP as substrate at 2 uM measured after 60 mins by ADP-Glo reagent based luminescence assay
SW-403 = experiment: Antiproliferative activity against human SW403 cells assessed as reduction in cell viability incubated for 7 days by CellTiter-Glo reagent based luminescence analysis; type: functional; conditions: SW-403, 168 h
[21] = Ratio of drug level in tumor to plasma in Balb/c mouse xenografted with human SUM149PT cells at 30 mg/kg, po administered via gavage and measured after 2 hrs; type: ADME, organism-based
[22] = Cmax in Sprague-Dawley rat at 50 mg/kg, po measured for 24 hrs by LC-MS/MS analysis; type: ADME, organism-based; conditions: in vivo
Cytochrome P450 1A2 = Cytochrome P450 1A2 (Homo sapiens, UniProt P05177); experiment: Inhibition of CYP1A2 in human liver microsomes assessed as inhibition of phenacetin-O-deethylation incubated for 10 mins in presence of NADPH by LC-MS/MS analysis; type: ADME, Microsome
Cytochrome P450 1A2, sequence (P05177 whole entry): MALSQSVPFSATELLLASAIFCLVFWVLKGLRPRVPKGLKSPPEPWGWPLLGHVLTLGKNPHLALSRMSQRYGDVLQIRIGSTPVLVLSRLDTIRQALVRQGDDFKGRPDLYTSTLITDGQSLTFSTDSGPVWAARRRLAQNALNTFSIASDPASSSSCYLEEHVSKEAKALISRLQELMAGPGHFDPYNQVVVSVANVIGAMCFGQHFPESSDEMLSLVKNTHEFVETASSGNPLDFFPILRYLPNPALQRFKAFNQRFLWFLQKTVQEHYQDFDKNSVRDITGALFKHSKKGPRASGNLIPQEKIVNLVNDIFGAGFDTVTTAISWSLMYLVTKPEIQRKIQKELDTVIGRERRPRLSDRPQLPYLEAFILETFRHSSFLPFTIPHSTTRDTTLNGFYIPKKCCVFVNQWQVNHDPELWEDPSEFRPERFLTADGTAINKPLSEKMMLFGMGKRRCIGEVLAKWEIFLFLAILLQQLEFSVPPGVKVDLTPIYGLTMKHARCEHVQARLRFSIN

MV4-11 = experiment: Antitumor activity against human MV4-11 cells xenografted in Balb/c nude mouse assessed as inhibition of tumor growth at 15 mg/kg, po administered once daily via gavage and measured on day 21; type: functional; conditions: MV4-11, 504 h, time 21 day, read-out: TGI
Cytochrome P450 2D6 = Cytochrome P450 2D6 (Homo sapiens, UniProt P10635); experiment: Inhibition of CYP2D6 in human liver microsomes assessed as inhibition of dextromethorphan-O-demethylation incubated for 10 mins in presence of NADPH by LC-MS/MS analysis; type: ADME, Microsome
Cytochrome P450 2D6, sequence (P10635 whole entry): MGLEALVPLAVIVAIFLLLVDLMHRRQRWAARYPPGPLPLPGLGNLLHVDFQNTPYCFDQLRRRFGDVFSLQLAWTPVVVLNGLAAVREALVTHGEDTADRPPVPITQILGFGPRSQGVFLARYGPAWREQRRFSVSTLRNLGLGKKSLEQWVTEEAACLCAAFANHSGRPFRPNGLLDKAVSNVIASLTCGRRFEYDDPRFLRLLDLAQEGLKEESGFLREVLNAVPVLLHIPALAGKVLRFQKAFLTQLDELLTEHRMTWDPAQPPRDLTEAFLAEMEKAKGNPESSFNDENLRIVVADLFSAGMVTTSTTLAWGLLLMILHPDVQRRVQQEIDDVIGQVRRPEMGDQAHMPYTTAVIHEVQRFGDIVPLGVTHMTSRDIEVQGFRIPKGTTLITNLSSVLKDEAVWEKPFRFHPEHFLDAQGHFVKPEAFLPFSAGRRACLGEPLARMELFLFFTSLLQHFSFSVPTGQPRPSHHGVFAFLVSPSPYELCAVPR

[23] = Toxicity against Sprague-Dawley rat assessed as abnormalities at 1 mg/kg, iv measured for 24 hrs; type: organism-based; conditions: in vivo
[24] = Toxicity against female Sprague-Dawley rat assessed as effect on body weight at 7.5 to 15 mg/kg, po administered once daily via gavage for 28 days and measured twice a week; type: organism-based; conditions: in vivo, 672 h, dose 7.5-15 mg/kg, time 28 day
[25] = Permeability of the compound in human Caco-2 cells at 2 uM incubated for 2 hrs by LC-MS/MS analysis; type: ADME, cell-based; conditions: read-out: permeability
[26] = Toxicity against male Sprague-Dawley rat assessed as effect on phosphorus level in blood at 10 to 40 mg/kg, po administered once daily via gavage for 28 days and measured on day 29; type: organism-based; conditions: in vivo, 696 h, dose 10-40 mg/kg, time 29 day

## C=CC(=O)N1CCc2c(ncnc2N2CC[C@@H](Nc3ncc(Cl)c(OC)n3)C2)C1
[1]
  Activity: Toxic
[2]
  Activity: Toxic
HEP Sf9
  inhibition: 23%
[3]
  IC50: 111 nM
[4]
  t1/2: 83.1 min
[5]
  Cmax: 793 ng/mL
[6]
  Cmax: 460 ng/mL
[7]
  fraction unbound at 4 h, 400 µM: 0.127
[8]
  Cmax: 1980 ng/mL
[9]
  AUC(0-inf): 270 ng·h/mL
SUM149PT
  Activity: Active
[10]
  half-life: 192 min
[11]
  Activity: Non-toxic
[12]
  Activity: Toxic
[13]
  inhibition: 56%
[14]
  inhibition: Active
[15]
  Vd: 0.72 L/kg
[16]
  Activity: Toxic
[17]
  half-life: > 289 min
[18]
  half-life: 13.8 min
DLD-1
  IC50: 135 nM
[19]
  inhibition: inactive
[20]
  inhibition: 75%
SW-403
  IC50: 135 nM
[21]
  Kp at 2 h: 0.38
[22]
  Cmax: 1900 ng/mL
Cytochrome P450 1A2
  IC50: > 50 µM
MV4-11
  inhibition in vivo at 15 mg/kg: 31%
Cytochrome P450 2D6
  IC50: > 50 µM
[23]
  Activity: Non-toxic
[24]
  Activity: Non-toxic
[25]
  Papp at 2 h, 2 µM: 4.6 ×10⁻⁶ cm/s
[26]
  Activity: Non-toxic
